Assay results: patent US9808466B2, “Macrocyclic compounds as protein kinase inhibitors” (Fundación Centro Nacional de Investigaciones Oncologicas …, priority 2011, dated 2017)
Read-outs that look alike come from different tables or passages of the source.

Assays:
PI3K (p110α/p85α) = target: T1, PI3K (p110α/p85α) (Homo sapiens, UniProt P42336); test: PI3K activity assay (ADP Hunter Plus); assay type: biochemical
T1 construct: purchased Carna Biosciences 07CBS-0402A
Method: The kinase activity was measured by using the commercial ADP Hunter™ Plus assay available from DiscoveRx (#33-016), which is a homogeneous assay to measure the accumulation of ADP, a universal product of kinase activity. […] Reaction was carried out for 1 hour at 25° C. Reagent A and B were sequentially added to the wells and plates were incubated for 30 min at 37° C. Fluorescence counts were read in a Victor instrument (Perkin Elmer) with the recommended settings (544 and 580 nm as excitation and emission wavelengths, respectively). Values were normalized against the control activity included for each enzyme (i.e., 100% PI3 kinase activity, without compound). These values were plotted against the inhibitor concentration and were fit to a sigmoid dose-response curve by using the Graphad software.

mTOR = target: T2, mTOR (Homo sapiens, UniProt P42345); test: mTOR assay (LanthaScreen kinase activity assay); assay type: biochemical
T2 construct: purchased Invitrogen PV4754
Method: The enzymatic mTOR activity was measured using a LanthaScreen™ kinase activity assay (Invitrogen). The enzyme was purchased from Invitrogen (PV4754), as well as the GFP-labeled substrate (4EBP1-GFP; PV4759) and the Tb-anti-p4EBP1(pThr46) antibody (PV4757). The assay was performed in 50 mM HEPES buffer, pH 7.5, containing 1.5 mM MnCl2, 10 mM MgCl2, 1 mM EGTA, 2.5 mM DTT and 0.01% Tween-20. The concentration of the assay components were the following: 0.24 nM mTOR kinase, 400 nM 4EBP1-GFP, […] and serial dilutions of the compound (inhibitor) to be evaluated. After 1 h incubation at room temperature, 20 mM EDTA was used to stop the reaction and terbium-labeled antibody (4 nM) added to detect phosphorylated product. The antibody associates with the phosphorylated product resulting in an increased TR-FRET value. The TR-FRET value (a dimensionless number) was calculated as the ratio of the acceptor signal (GFP, emission at 520 nm) to the donor signal (terbium, emission at 495 nm). Values were plotted against the inhibitor concentration and fitted to a sigmoid dose-response curve using GraphPad software.

PIM-1 = target: T3, PIM-1 (Homo sapiens, UniProt P11309); test: PIM-1 biochemical assay (ADP Hunter)
T3 construct: histidine tag (C); made in house
Source text: The biochemical assay to measure PIM-1 activity relies on the ADP Hunter assay kit (DiscoveRx Corp., Cat. #90-0077), that determines the amount of ADP as direct product of the kinase enzyme activity.
The enzyme has been expressed and purified in-house as a recombinant human protein with a C-terminal histidine tag. The protein is active and stable.
Assay conditions were as indicated by the kit manufacturers with the following adaptations for the kinase activity step: • Kinase assay buffer and assay volume stay as recommended (15 mM HEPES, pH 7.4, 20 mM NaCl, 1 mM EGTA, 0.02% Tween 20, 10 mM MgCl2 and 0.1 mg/ml bovine γ-globulins/75 μl assay volume) • Incubation time and temperature: 60 min at 30° C. • PIM-1 concentration: 50 pg/μl • ATP concentration: 100 μM • PIM-1 substrate peptide: PIMtide ([…]) (SEQIDNO. 1) • Peptide concentration: 60 μM • Positive control for kinase activity inhibition: 1-10 μM Staurosporine • DMSO concentration have to stay below 2% during the kinase reaction
Assays were performed in either 96 or 384-well plates. The final outcome of the coupled reactions provided by the kit is the release of the fluorescent product Resorufin and has been measured with a multilabel HTS counter VICTOR V (PerkinElmer) using an excitation filter at 544 nm and an emission filter at 580 nm.

[1] = Pharmacokinetic in BALB-c female mice, i.v. and oral; assay type: in vivo; conditions: for AUC(0-inf) / half-life / clearance / MRT / Vd / bioavailability / Cmax: mouse; for half-life: read-out: T½ last (plasmatic half life) (converted); for clearance: read-out: Cl (plasmatic clearance) (converted); for MRT: read-out: MRT (Mean residence time); for Vd: read-out: Vd (volume of distribution); for bioavailability: P.O dose 10.00 mg/Kg vs I.V 5.00 mg/Kg, read-out: F % (bioavailability); for Cmax: read-out: C max (maximum plasma concentration after oral administration)
Method: Experiments were done using BALB-c female mice, 10 weeks old. Compounds were dissolved in selected vehicles at a concentration calculated in order to administer the dose selected in 0.1 mL. Animals were administered by i.v and oral route (by gavage), and sacrificed at different time points (n=3 at each time point). Time points were 0.08, 0.25, 0.5, 1, 4 and 8 h for the i.v branch, and 0.08, 0.16, 0.25, 0.5, 1, 4, 8 and 24 h for oral branch. Blood was collected and processed for plasma which was analyzed and quantified by means of tandem mass spectrometry coupled with liquid chromatography. Pharmacokinetic parameters were estimated by fitting the experimental data to a compartmental model using Winnonlin software for pharmacokinetic analysis.

[2] = read-out: PI3K alpha activity, IC50 (semi-quantitative class)
[3] = read-out: PI3K alpha actual IC50 (in parentheses)
[4] = read-out: mTOR activity, IC50 (semi-quantitative class)
[5] = PIM1, read-out: PIM-1 activity, IC50 (semi-quantitative class)
[6] = iv, I.V, dose 5.00 mg/Kg, plasma
[7] = plasma, iv, I.V, dose 5.00 mg/Kg
[8] = po, P.O, dose 10.00 mg/Kg, plasma
[9] = PIM1, read-out: PIM-1 actual IC50 (in parentheses)
[10] = read-out: PI3K alpha activity (semi-quantitative IC50)
[11] = read-out: mTOR activity (semi-quantitative IC50)
[12] = read-out: PIM-1 activity (semi-quantitative IC50)

T1 sequence (P42336 whole entry): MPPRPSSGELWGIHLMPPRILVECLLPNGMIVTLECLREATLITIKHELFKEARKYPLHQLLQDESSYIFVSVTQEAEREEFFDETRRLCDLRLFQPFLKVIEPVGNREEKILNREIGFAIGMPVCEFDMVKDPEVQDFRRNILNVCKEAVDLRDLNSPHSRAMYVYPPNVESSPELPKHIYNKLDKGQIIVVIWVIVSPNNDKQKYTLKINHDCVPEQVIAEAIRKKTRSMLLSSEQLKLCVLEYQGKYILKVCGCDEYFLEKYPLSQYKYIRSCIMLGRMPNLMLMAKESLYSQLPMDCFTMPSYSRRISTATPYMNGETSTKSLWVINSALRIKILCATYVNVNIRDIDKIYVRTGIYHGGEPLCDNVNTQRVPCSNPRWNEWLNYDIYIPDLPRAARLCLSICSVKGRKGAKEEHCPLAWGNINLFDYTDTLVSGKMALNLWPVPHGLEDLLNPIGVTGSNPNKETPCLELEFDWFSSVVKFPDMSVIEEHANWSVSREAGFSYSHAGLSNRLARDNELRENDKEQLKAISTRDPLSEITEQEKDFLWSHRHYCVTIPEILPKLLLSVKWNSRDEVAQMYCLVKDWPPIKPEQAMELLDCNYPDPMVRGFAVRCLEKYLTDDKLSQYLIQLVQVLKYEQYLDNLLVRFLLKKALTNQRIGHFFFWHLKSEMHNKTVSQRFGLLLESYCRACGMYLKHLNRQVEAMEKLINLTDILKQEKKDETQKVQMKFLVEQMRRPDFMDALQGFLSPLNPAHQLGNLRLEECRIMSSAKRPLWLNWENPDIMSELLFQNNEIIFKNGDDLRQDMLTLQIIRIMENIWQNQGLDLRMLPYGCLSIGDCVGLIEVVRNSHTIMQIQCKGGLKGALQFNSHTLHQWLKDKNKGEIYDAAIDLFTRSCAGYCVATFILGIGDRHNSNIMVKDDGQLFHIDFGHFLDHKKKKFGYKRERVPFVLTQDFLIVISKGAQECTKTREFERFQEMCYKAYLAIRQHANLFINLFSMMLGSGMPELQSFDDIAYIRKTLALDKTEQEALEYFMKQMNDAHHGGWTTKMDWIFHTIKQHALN
T1 sequence (P27986 whole entry partner): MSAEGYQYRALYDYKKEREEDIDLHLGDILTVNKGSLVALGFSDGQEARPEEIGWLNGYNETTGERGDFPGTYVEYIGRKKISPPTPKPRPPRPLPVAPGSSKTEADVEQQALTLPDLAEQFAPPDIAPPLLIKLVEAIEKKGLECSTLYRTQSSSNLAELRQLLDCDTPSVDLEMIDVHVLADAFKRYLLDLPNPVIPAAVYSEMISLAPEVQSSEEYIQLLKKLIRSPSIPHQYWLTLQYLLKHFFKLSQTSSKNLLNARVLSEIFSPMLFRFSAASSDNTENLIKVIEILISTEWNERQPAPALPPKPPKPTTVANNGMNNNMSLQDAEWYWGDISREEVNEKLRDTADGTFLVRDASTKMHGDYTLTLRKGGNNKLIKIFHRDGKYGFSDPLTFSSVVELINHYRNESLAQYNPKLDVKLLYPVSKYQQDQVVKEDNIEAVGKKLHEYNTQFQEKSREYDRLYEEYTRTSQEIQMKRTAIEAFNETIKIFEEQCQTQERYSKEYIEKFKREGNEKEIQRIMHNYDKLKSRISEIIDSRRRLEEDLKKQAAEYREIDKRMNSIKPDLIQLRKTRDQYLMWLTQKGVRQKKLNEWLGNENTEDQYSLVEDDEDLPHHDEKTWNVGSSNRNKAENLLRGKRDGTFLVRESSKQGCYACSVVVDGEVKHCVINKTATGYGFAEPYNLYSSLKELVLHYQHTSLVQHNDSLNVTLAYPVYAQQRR
T3 sequence (P11309 whole entry): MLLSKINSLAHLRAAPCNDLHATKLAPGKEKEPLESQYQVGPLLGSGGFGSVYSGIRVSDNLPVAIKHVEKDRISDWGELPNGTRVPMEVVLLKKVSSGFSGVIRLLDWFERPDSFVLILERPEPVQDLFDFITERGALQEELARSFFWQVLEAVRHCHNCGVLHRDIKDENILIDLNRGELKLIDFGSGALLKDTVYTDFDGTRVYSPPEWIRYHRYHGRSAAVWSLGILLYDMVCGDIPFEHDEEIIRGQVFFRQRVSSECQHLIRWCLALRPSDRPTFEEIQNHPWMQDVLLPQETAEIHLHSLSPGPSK
T2 sequence (P42345 1360-2549 limits assumed): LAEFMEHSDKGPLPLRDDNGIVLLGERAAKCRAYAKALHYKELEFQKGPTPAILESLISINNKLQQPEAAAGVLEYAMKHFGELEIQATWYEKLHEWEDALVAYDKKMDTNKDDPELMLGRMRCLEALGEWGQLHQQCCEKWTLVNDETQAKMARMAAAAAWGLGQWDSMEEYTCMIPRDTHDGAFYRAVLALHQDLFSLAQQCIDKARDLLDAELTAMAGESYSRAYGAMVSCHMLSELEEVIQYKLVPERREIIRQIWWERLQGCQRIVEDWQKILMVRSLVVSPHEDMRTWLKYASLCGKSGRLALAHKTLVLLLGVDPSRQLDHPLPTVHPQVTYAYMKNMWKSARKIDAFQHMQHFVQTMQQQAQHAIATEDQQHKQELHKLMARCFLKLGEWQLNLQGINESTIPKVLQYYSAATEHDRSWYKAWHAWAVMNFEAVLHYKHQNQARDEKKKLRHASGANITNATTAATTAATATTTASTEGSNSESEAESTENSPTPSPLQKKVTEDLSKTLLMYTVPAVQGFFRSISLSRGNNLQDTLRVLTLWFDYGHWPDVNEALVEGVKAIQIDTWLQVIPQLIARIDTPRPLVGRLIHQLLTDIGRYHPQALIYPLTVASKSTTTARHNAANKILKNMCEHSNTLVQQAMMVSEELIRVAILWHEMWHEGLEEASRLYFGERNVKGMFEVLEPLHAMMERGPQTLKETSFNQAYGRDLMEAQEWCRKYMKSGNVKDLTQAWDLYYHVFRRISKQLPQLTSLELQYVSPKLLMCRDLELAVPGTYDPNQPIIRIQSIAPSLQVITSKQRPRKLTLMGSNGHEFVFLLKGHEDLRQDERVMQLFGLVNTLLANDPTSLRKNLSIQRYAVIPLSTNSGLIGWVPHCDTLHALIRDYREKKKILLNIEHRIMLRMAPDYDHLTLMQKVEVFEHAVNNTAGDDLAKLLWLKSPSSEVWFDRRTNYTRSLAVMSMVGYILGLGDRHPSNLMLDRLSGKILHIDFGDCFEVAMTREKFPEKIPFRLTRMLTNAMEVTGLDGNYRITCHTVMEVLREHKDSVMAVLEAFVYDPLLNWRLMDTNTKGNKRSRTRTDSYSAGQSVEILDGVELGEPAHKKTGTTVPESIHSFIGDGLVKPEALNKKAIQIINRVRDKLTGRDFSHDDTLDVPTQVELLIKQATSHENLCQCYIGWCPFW

SMILES | IC50 (PI3K (p110α/p85α); [2]) [nM] | IC50 (PI3K (p110α/p85α); [3]) [nM] | IC50 (mTOR; [4]) [nM] | IC50 (PIM-1; [5]) [nM] | IC50 (PI3K (p110α/p85α); [10]) [nM] | IC50 (mTOR; [11]) [nM] | IC50 (PIM-1; [12]) [nM] | also measured
COc1ncc2cc1NS(=O)(=O)c1cccc(c1)C(=O)NCc1cccc(c1)-c1ccnc3ccc-2cc13 [compound 3] | < 100 | 1.6 | 100 to 1000 | > 1000 | – | – | – | AUC(0-inf) [1, 6]: 23700 ng·h/mL; half-life [1, 6]: 84.6 min; clearance [1, 7]: 6 mL/min/kg; MRT [1, 7]: 1.27 h; Vd [1, 7]: 0.46 L/kg; bioavailability ([1]; plasma, po): 101%; AUC(0-inf) [1, 8]: 48100 ng·h/mL; Cmax [1, 8]: 12400 ng/mL
COc1ncc2cc1NS(=O)(=O)c1cc(c(F)cc1F)C(=O)NCc1cncc(c1)-c1ccnc3ccc-2cc13 [compound 10] | < 100 | 0.03 | < 100 | > 1000 | – | – | – | IC50 (mTOR; read-out: mTOR actual IC50 (in parentheses)): 22 nM; Cl (plasmatic clearance) ([1]; I.V, dose 5.00 mg/Kg): 0.53 L/h/kg; AUC inf ([1]; I.V, dose 5.00 mg/Kg, plasma): 9467.60 ng·h/mL; T½ last (plasmatic half life) ([1]; I.V, dose 5.00 mg/Kg, plasma): 34.2 min; MRT [1, 7]: 0.53 h; Vd [1, 7]: 0.28 L/kg; bioavailability ([1]; plasma, po): 39.9%; AUC(0-inf) [1, 8]: 7560 ng·h/mL; Cmax [1, 8]: 3390 ng/mL
COc1ncc2cc1NS(=O)(=O)c1cccc(c1)C(=O)NCc1cccc(c1)-c1ncnc3ccc-2cc13 [compound 22] | < 100 | 0.1 | – | > 1000 | – | – | – | AUC(0-inf) [1, 6]: 66900 ng·h/mL; half-life [1, 6]: 205 min; clearance [1, 7]: 1.17 mL/min/kg; MRT [1, 7]: 4.94 h; Vd [1, 7]: 0.37 L/kg; bioavailability ([1]; plasma, po): 33.5%; AUC(0-inf) [1, 8]: 44800 ng·h/mL; Cmax [1, 8]: 15000 ng/mL
COc1ncc2cc1NS(=O)(=O)c1cccc(c1)C(=O)NCC1=CC=C(S1)c1ccnc3c1SC2=C3 [compound 80] | 100 to 1000 | – | > 1000 | < 100 | – | – | – | IC50 (PIM-1; [9]): 15 nM
COc1ncc2cc1NS(=O)(=O)c1ccc(F)c(c1)C(=O)NCC1=CC=C(S1)c1ncnc3c1SC2=C3 [compound 82] | < 100 | 57 | > 1000 | < 100 | – | – | – | IC50 (PIM-1; [9]): 13 nM
COc1ncc2cc1NS(=O)(=O)c1cccc(c1)C(=O)NC[C@H]1CCCN(C1)c1ncnc3c1SC2=C3 [compound 83] | > 1000 | – | > 1000 | 100 to 1000 | – | – | – | –
COc1ncc2cc1NS(=O)(=O)c1cccc(c1)C(=O)NC[C@@H]1CCCN(C1)c1ncnc3c1SC2=C3 [compound 84] | > 1000 | – | > 1000 | 100 to 1000 | – | – | – | –
O=C1NCc2cccc(c2)-c2cnn3ccc(nc23)-c2cnc(O)c(c2)NS(=O)(=O)c2cccc1c2 [compound 85] | – | – | – | – | 100 to 1000 | > 1000 | > 1000 | –
COc1ncc2cc1NS(=O)(=O)c1cccc(c1)C(=O)NC[C@@H]1CCN(C1)c1ncnc3c1SC2=C3 [compound 86] | – | – | – | – | > 1000 | > 1000 | 100 to 1000 | –
COc1ncc2cc1NS(=O)(=O)c1cccc(c1)C(=O)NC[C@H]1CCN(C1)c1ncnc3c1SC2=C3 [compound 87] | – | – | – | – | > 1000 | > 1000 | 100 to 1000 | –
COc1ncc2cc1NS(=O)(=O)c1cccc(c1)C(=O)NCC1=C(C)C=C(S1)c1ncnc3c1SC2=C3 [compound 88] | – | – | – | – | 100 to 1000 | > 1000 | < 100 | IC50 (PIM-1; read-out: PIM-1 IC50 (in parentheses)): 69 nM
COc1ncc2cc1NS(=O)(=O)c1cccc(c1)C(=O)NCc1ccncc1-c1ncnc3c1SC2=C3 [compound 89] | – | – | – | – | > 1000 | > 1000 | > 1000 | –
